Measured values as given in patent US9630977B2, “Cephalosporin derivatives and pharmaceutical compositions thereof” (Legochem Biosciences, Inc., priority 2011, dated 2017).
Values after ≈ are worked out from the molar mass of the structure shown. Read-outs that look alike come from different tables or passages of the source.

What was measured:
Assay in all cases: In vitro antibacterial activity test (broth microdilution)
Format in all cases: cell-based
A. baumannii 46 = test system: A. baumannii 46
Method: (§1) To evaluate antibacterial activity of each of the compounds of Examples 1 to 68, in vitro antibacterial activity test was performed.
(§2) The in vitro antibacterial activity was evaluated by measuring MIC90 (ug/mL) of each of the compounds of Examples 1 to 68, which is defined as the lowest concentration of an antibiotic that will inhibit the visible growth of 90% of microorganisms after incubation as compared with a control group to which the antibiotic is not treated. MIC90 values were measured by the broth microdilution method developed by the Clinical and Laboratory Standards Institute (CLSI) (see CLSI M7-A5, Methods for Dilution Antimicrobial Susceptibility Test for Bacteria that Grow Aerobically-Fifth Edition (2000): CLSI, Villanova, Pa.).
(§3) In vitro antibacterial activity was measured with respect to the following 19 clinical isolates: M. catarrhalis; P. aeruginosa (5 strains); K. pneumoniae (6 strains); A. baumannii (3 strains); E. coli (2 strains); A. calcoaceticus; and E. cloacae.
(§4) Test compounds each (the cephalosporin derivative compounds prepared in Examples 1 to 68) were dissolved in DMSO at the concentration of 10,240 ug/mL, were diluted by two fold with DMSO, and then were diluted by twenty fold with sterilized distilled water. The final concentration in the antibacterial activity test was in the range of […] to 128 ug/mL, and the final concentration of DMSO used as an adjuvant was 2.5% (V/V).

A. baumannii 49 = test system: A. baumannii 49
Method: as §1, §2, §3, §4

A. baumannii 52 = conditions: Acinetobacter baumannii
Method: as §1, §2, §3, §4

[1] = test system: A. calcoaceticus ATCC15473; conditions: Acinetobacter calcoaceticus
Method: as §1, §2, §3, §4

E. cloacae β19 = conditions: Enterobacter cloacae
Method: as §1, §2, §3, §4

E. coli AG100 = conditions: Escherichia coli
Method: as §1, §2, §3, §4

E. coli β4 = conditions: Escherichia coli
Method: as §1, §2, §3, §4

K. pneumoniae 2011E = conditions: Klebsiella pneumoniae, 2011E
Method: as §1, §2, §3, §4

K. pneumoniae β10 = conditions: Klebsiella pneumoniae
Method: as §1, §2, §3, §4

K. pneumoniae β11 = conditions: Klebsiella pneumoniae
Method: as §1, §2, §3, §4

K. pneumoniae β13 = conditions: Klebsiella pneumoniae
Method: as §1, §2, §3, §4

K. pneumoniae β14 = conditions: Klebsiella pneumoniae
Method: as §1, §2, §3, §4

K. pneumoniae β9 = conditions: Klebsiella pneumoniae
Method: as §1, §2, §3, §4

M. catarrhalis 2524 = conditions: Moraxella catarrhalis
Method: as §1, §2, §3, §4

P. aeruginosa 1912E = conditions: Pseudomonas aeruginosa, 1912E
Method: as §1, §2, §3, §4

P. aeruginosa 37 = conditions: Pseudomonas aeruginosa, 37, P. aeruginosa 37
Method: as §1, §2, §3, §4

P. aeruginosa 40 = test system: P. aeruginosa 40
Method: as §1, §2, §3, §4

P. aeruginosa 43 = conditions: Pseudomonas aeruginosa
Method: as §1, §2, §3, §4

P. aeruginosa 6065Y = conditions: Pseudomonas aeruginosa
Method: as §1, §2, §3, §4

[2] = Acinetobacter baumannii, A. baumannii 46, read-out: MIC90
[3] = Acinetobacter baumannii, A. baumannii 49, read-out: MIC90
[4] = A. baumannii 52, read-out: MIC90
[5] = A. calcoaceticus ATCC15473, read-out: MIC90
[6] = AG100, E. coli AG100, read-out: MIC90
[7] = K. pneumoniae 2011E, read-out: MIC90
[8] = K. pneumoniae β10, read-out: MIC90
[9] = K. pneumoniae β11, read-out: MIC90
[10] = K. pneumoniae β13, read-out: MIC90
[11] = K. pneumoniae β9, read-out: MIC90
[12] = M. catarrhalis 2524, read-out: MIC90
[13] = Pseudomonas aeruginosa, 40, P. aeruginosa 40, read-out: MIC90
[14] = P. aeruginosa 43, read-out: MIC90

| MIC90 (A. baumannii 46; [2]) | MIC90 (A. baumannii 49; [3]) | MIC90 (A. baumannii 52; [4]) | MIC90 [1, 5] | MIC90 (E. cloacae β19; read-out: MIC90) | MIC90 (E. coli AG100; [6]) | MIC90 (E. coli β4; read-out: MIC90) | MIC90 (K. pneumoniae 2011E; [7]) | MIC90 (K. pneumoniae β10; [8]) | MIC90 (K. pneumoniae β11; [9]) | MIC90 (K. pneumoniae β13; [10]) | MIC90 (K. pneumoniae β14; read-out: MIC90) | MIC90 (K. pneumoniae β9; [11]) | MIC90 (M. catarrhalis 2524; [12]) | MIC90 (P. aeruginosa 1912E; read-out: MIC90) | MIC90 (P. aeruginosa 37; read-out: MIC90) | MIC90 (P. aeruginosa 40; [13]) | MIC90 (P. aeruginosa 43; [14]) | MIC90 (P. aeruginosa 6065Y; read-out: MIC90) | Compound | also measured |
| --- | --- | --- | --- | --- | --- | --- | --- | --- | --- | --- | --- | --- | --- | --- | --- | --- | --- | --- | --- | --- |
| – | – | – | – | – | – | – | – | – | – | – | – | – | – | – | – | – | – | – | CC(C)(O/N=C(\C(=O)N[C@@H]1C(=O)N2C(C(=O)[O-])=C(/C=C/C[n+]3cnc(N)c(NCCN)c3N)CSC12)c1csc(N)n1)C(=O)O (stereo partly drawn) [Compound 44] | MIC90 (A. baumannii 46; Acinetobacter baumannii, 46, A. baumannii 46): 16 µg/mL (≈ 24.2 µM); MIC90 (A. baumannii 49; Acinetobacter baumannii, 49, A. baumannii 49): > 128 µg/mL; MIC90 (A. baumannii 52; 52): > 128 µg/mL; MIC90 ([1]; ATCC15473, A. calcoaceticus ATCC15473): 1 µg/mL (≈ 1.51 µM); MIC90 (E. cloacae β19): 0.5 µg/mL (≈ 0.756 µM); MIC90 (E. coli AG100; AG100): 0.25 µg/mL (≈ 0.378 µM); MIC90 (E. coli β4): 0.5 µg/mL (≈ 0.756 µM); MIC90 (K. pneumoniae 2011E): 0.5 µg/mL (≈ 0.756 µM); MIC90 (K. pneumoniae β10): 0.5 µg/mL (≈ 0.756 µM); MIC90 (K. pneumoniae β11): 32 µg/mL (≈ 48.4 µM); MIC90 (K. pneumoniae β13): 1 µg/mL (≈ 1.51 µM); MIC90 (K. pneumoniae β14): 1 µg/mL (≈ 1.51 µM); MIC90 (K. pneumoniae β9): 1 µg/mL (≈ 1.51 µM); MIC90 (M. catarrhalis 2524; 2524): < 0.0625 µg/mL; MIC90 (P. aeruginosa 1912E): 8 µg/mL (≈ 12.1 µM); MIC90 (P. aeruginosa 37): 16 µg/mL (≈ 24.2 µM); MIC90 (P. aeruginosa 40; Pseudomonas aeruginosa, 40): 16 µg/mL (≈ 24.2 µM); MIC90 (P. aeruginosa 43; 43): 128 µg/mL (≈ 193 µM); MIC90 (P. aeruginosa 6065Y; 6065Y): 32 µg/mL (≈ 48.4 µM) |
| 4 µg/mL (≈ 4.83 µM) | > 128 µg/mL | > 128 µg/mL | 1 µg/mL (≈ 1.21 µM) | 4 µg/mL (≈ 4.83 µM) | 0.25 µg/mL (≈ 0.302 µM) | 0.25 µg/mL (≈ 0.302 µM) | 2 µg/mL (≈ 2.42 µM) | 0.25 µg/mL (≈ 0.302 µM) | 64 µg/mL (≈ 77.3 µM) | < 0.0625 µg/mL | 8 µg/mL (≈ 9.66 µM) | 0.25 µg/mL (≈ 0.302 µM) | 1 µg/mL (≈ 1.21 µM) | 1 µg/mL (≈ 1.21 µM) | 8 µg/mL (≈ 9.66 µM) | 1 µg/mL (≈ 1.21 µM) | 1 µg/mL (≈ 1.21 µM) | 2 µg/mL (≈ 2.42 µM) | CC(C)(O/N=C(\C(=O)N[C@@H]1C(=O)N2C(C(=O)[O-])=C(/C=C/C[n+]3cnc(N)c(NC(=O)CCNC(=O)c4cc(=O)c(O)cn4O)c3)CSC12)c1csc(N)n1)C(=O)O (stereo partly drawn) [Compound 12] | – |
| 4 µg/mL (≈ 5.17 µM) | 16 µg/mL (≈ 20.7 µM) | 32 µg/mL (≈ 41.4 µM) | 0.5 µg/mL (≈ 0.646 µM) | 2 µg/mL (≈ 2.58 µM) | < 0.0625 µg/mL | 2 µg/mL (≈ 2.58 µM) | 2 µg/mL (≈ 2.58 µM) | 0.125 µg/mL (≈ 0.162 µM) | 128 µg/mL (≈ 165 µM) | 0.5 µg/mL (≈ 0.646 µM) | 128 µg/mL (≈ 165 µM) | 4 µg/mL (≈ 5.17 µM) | 1 µg/mL (≈ 1.29 µM) | 0.25 µg/mL (≈ 0.323 µM) | 0.5 µg/mL (≈ 0.646 µM) | 0.25 µg/mL (≈ 0.323 µM) | 0.25 µg/mL (≈ 0.323 µM) | 1 µg/mL (≈ 1.29 µM) | CC(C)(O/N=C(\C(=O)N[C@@H]1C(=O)N2C(C(=O)[O-])=C(C[n+]3cnc(N)c(NCCNC(=O)c4cc(=O)c(O)cn4O)c3)CSC12)c1csc(N)n1)C(=O)O (stereo partly drawn) [Compound 1] | – |
